In brackets after ≈: the same amount, converted by molar mass. Positions of bridges follow the written chain, without caps; N, C: chain ends. Non-standard residues stand in square brackets, D forms with d. Residues, ends and D or L forms follow the SMILES beside them. Groups on a side chain read outwards from the residue. *: point of attachment. Palmitoyl(16-(5-tetrazolyl)) = O=C(CCCCCCCCCCCCCCCc1nnn[nH]1)*; Lys(CH2CO2H)2 = N[C@@H](CCCCN(CC(=O)O)CC(=O)O)C(=O)O; X1 = O=C(O)CCCCCCCCCCCCCCCCC(=O)NCCOCCOCCN*; C18 diacid = O=C(O)CCCCCCCCCCCCCCCCC(=O)*; C16 diacid = O=C(O)CCCCCCCCCCCCCCC(=O)*; Orn = NCCC[C@H](N)C(=O)O; Dap = NC[C@H](N)C(=O)O; AEEA = NCCOCCOCC(=O)O
Assay: physchem
Procedure: From a stock solution in vehicle, either H2O or 10 mM phosphate, containing 1 mg (as weighed) compound per ml, 8-11 aliquots are withdrawn and pH-adjusted individually with HCl/NaOH, to cover the whole pH range.

For `CC(=O)N[C@H]1CCC(=O)NCCC[C@@H](C(=O)N2CCC[C@H]2C(=O)N2CCC[C@H]2C(=O)N[C@@H](Cc2c[nH]cn2)C(=O)N[C@@H](CC(=O)O)C(=O)N[C@@H](CCCCN(CC(=O)O)CC(=O)O)C(=O)N[C@@H](CCCCNC(=O)COCCOCCNC(=O)CCCCCCCCCCCCCCCc2nnn[nH]2)C(N)=O)NC(=O)[C@H](Cc2c[nH]c3ccccc23)NC(=O)[C@H](CCCNC(=N)N)NC(=O)[C@@H](Cc2ccccc2)NC(=O)[C@H](Cc2c[nH]cn2)NC1=O` [Example 43, Ac-c[Glu-His-D-Phe-Arg-Trp-Orn]-Pro-Pro-His-Asp-Lys(biscarboxymethyl)-Lys[(2-{2-[16-(tetrazol-5-yl)hexadecanoylamino]ethoxy}ethoxy)acetyl]-NH2] (Ac-EH[dF]RW[Orn]PPHD[Lys(CH2CO2H)2]K([AEEA-Palmitoyl(16-(5-tetrazolyl))])-NH2; lactam 1-6), the solubility (pH 5.9, Solubility Conc.) was 27 µM (≈ 58.9 µg/mL), the solubility (pH 6.5, Solubility Conc.) was 75 µM (≈ 164 µg/mL) and the solubility (pH 6.7, Solubility Conc.) was 315 µM (≈ 687 µg/mL). For the same compound, the solubility (pH 6.8, Solubility Conc.) was 478 µM (≈ 1040 µg/mL), the solubility (pH 7.2, Solubility Conc.) was 478 µM (≈ 1040 µg/mL) and the solubility (pH 7.4, Solubility Conc.) was 506 µM (≈ 1100 µg/mL). It also gave a solubility (pH 7.7, Solubility Conc.) of 487 µM (≈ 1060 µg/mL), a solubility (pH 7.9, Solubility Conc.) of 490 µM (≈ 1070 µg/mL) and a solubility (pH 8.1, Solubility Conc.) of 493 µM (≈ 1080 µg/mL).
Work on `CC(=O)N[C@H]1CCCNC(=O)C[C@@H](C(=O)N2CCC[C@H]2C(=O)N2CCC[C@H]2C(=O)N[C@@H](Cc2c[nH]cn2)C(=O)N[C@@H](CCC(=O)O)C(=O)N[C@@H](CCCCN(CC(=O)O)CC(=O)O)C(=O)N[C@@H](CCCCNC(=O)COCCOCCNC(=O)CCCCCCCCCCCCCCCCC(=O)O)C(N)=O)NC(=O)[C@H](Cc2c[nH]c3ccccc23)NC(=O)[C@H](CCCNC(=N)N)NC(=O)[C@@H](Cc2ccccc2)NC(=O)[C@H](Cc2c[nH]cn2)NC1=O` [Example 46, Ac-c[Orn-His-D-Phe-Arg-Trp-Asp]-Pro-Pro-His-Glu-Lys(biscarboxymethyl)-Lys({2-[2-(17-carboxyheptadecanoylamino)ethoxy]ethoxy}acetyl)-NH2] (Ac-[Orn]H[dF]RWDPPHE[Lys(CH2CO2H)2]K([AEEA-C18 diacid])-NH2; lactam 1-6) yielded a solubility (pH 5, Solubility Conc.) of 25 µM (≈ 54.3 µg/mL), a solubility (pH 5.4, Solubility Conc.) of 24 µM (≈ 52.1 µg/mL) and a solubility (pH 6.1, Solubility Conc.) of 47 µM (≈ 102 µg/mL). The solubility (pH 6.6, Solubility Conc.) was 160 µM (≈ 347 µg/mL), the solubility (pH 6.7, Solubility Conc.) was 422 µM (≈ 916 µg/mL) and the solubility (pH 6.8, Solubility Conc.) was 471 µM (≈ 1020 µg/mL). The solubility (pH 7.1, Solubility Conc.) was 494 µM (≈ 1070 µg/mL), the solubility (pH 7.6, Solubility Conc.) was 509 µM (≈ 1110 µg/mL) and the solubility (pH 7.8, Solubility Conc.) was 507 µM (≈ 1100 µg/mL).
Work on `CC(=O)N[C@H]1CNC(=O)CC[C@@H](C(=O)N2CCC[C@H]2C(=O)N2CCC[C@H]2C(=O)N[C@@H](CCCNC(=N)N)C(=O)N[C@@H](CC(=O)O)C(=O)N[C@@H](CCCCN(CC(=O)O)CC(=O)O)C(=O)N[C@@H](CCCCNC(=O)COCCOCCNC(=O)CCCCCCCCCCCCCCCc2nnn[nH]2)C(N)=O)NC(=O)[C@H](Cc2c[nH]c3ccccc23)NC(=O)[C@H](CCCNC(=N)N)NC(=O)[C@@H](Cc2ccccc2)NC(=O)[C@H](Cc2c[nH]cn2)NC1=O` [Example 47, Ac-c[Dap-His-D-Phe-Arg-Trp-Glu]-Pro-Pro-Arg-Asp-Lys(biscarboxymethyl)-Lys[(2-{2-[16-(tetrazol-5-yl)hexadecanoylamino]ethoxy}ethoxy)acetyl]-NH2] (Ac-[Dap]H[dF]RWEPPRD[Lys(CH2CO2H)2]K([AEEA-Palmitoyl(16-(5-tetrazolyl))])-NH2; lactam 1-6) yielded a solubility (pH 6.4, Solubility Conc.) of 24 µM (≈ 52.1 µg/mL), a solubility (pH 6.9, Solubility Conc.) of 56 µM (≈ 122 µg/mL) and a solubility (pH 7.1, Solubility Conc.) of 103 µM (≈ 224 µg/mL). For the same compound, the solubility (pH 7.2, Solubility Conc.) was 219 µM (≈ 476 µg/mL), the solubility (pH 7.3, Solubility Conc.) was 366 µM (≈ 795 µg/mL) and the solubility (pH 7.5, Solubility Conc.) was 379 µM (≈ 823 µg/mL). It also gave a solubility (pH 7.6, Solubility Conc.) of 371 µM (≈ 806 µg/mL) and a solubility (pH 7.9, Solubility Conc.) of 493 µM (≈ 1070 µg/mL).
Work on `CC(=O)N[C@H]1CCCNC(=O)C[C@@H](C(=O)N2CCC[C@H]2C(=O)N2CCC[C@H]2C(=O)N[C@@H](CCCNC(=N)N)C(=O)N[C@@H](CCC(=O)O)C(=O)N[C@@H](CCCCN(CC(=O)O)CC(=O)O)C(=O)N[C@@H](CO)C(=O)N[C@@H](CO)C(=O)NCCOCCOCCNC(=O)CCCCCCCCCCCCCCCCC(=O)O)NC(=O)[C@H](Cc2c[nH]c3ccccc23)NC(=O)[C@H](CCCNC(=N)N)NC(=O)[C@@H](Cc2ccccc2)NC(=O)[C@H](Cc2c[nH]cn2)NC1=O` [Example 50, Ac-c[Orn-His-D-Phe-Arg-Trp-Asp]-Pro-Pro-Arg-Glu-Lys(biscarboxymethyl)-Ser-Ser-NH(2-{2-[2-(17-carboxyheptadecanoylamino)ethoxy]ethoxy}ethyl)] (Ac-[Orn]H[dF]RWDPPRE[Lys(CH2CO2H)2]SS-X1; lactam 1-6) yielded a solubility (pH 6.5, Solubility Conc.) of 57 µM (≈ 127 µg/mL), a solubility (pH 7, Solubility Conc.) of 92 µM (≈ 204 µg/mL) and a solubility (pH 7.2, Solubility Conc.) of 123 µM (≈ 273 µg/mL). It also gave a solubility (pH 7.4, Solubility Conc.) of 156 µM (≈ 347 µg/mL), a solubility (pH 7.5, Solubility Conc.) of 176 µM (≈ 391 µg/mL) and a solubility (pH 7.7, Solubility Conc.) of 197 µM (≈ 438 µg/mL). The solubility (pH 7.8, Solubility Conc.) was 212 µM (≈ 471 µg/mL), the solubility (pH 7.9, Solubility Conc.) was 208 µM (≈ 462 µg/mL) and the solubility (pH 8.2, Solubility Conc.) was 212 µM (≈ 471 µg/mL).
`CC(=O)N[C@H]1CCCNC(=O)C[C@@H](C(=O)N2CCC[C@H]2C(=O)N2CCC[C@H]2C(=O)N[C@@H](Cc2c[nH]cn2)C(=O)N[C@@H](CCC(=O)O)C(=O)N[C@@H](CCCCN(CC(=O)O)CC(=O)O)C(=O)N[C@@H](CCCCNC(=O)COCCOCCNC(=O)CCCCCCCCCCCCCCC(=O)O)C(N)=O)NC(=O)[C@H](Cc2c[nH]c3ccccc23)NC(=O)[C@H](CCCNC(=N)N)NC(=O)[C@@H](Cc2ccccc2)NC(=O)[C@H](Cc2c[nH]cn2)NC1=O` [Example 51, Ac-c[Orn-His-D-Phe-Arg-Trp-Asp]-Pro-Pro-His-Glu-Lys(biscarboxymethyl)-Lys({2-[2-(15-carboxypentadecanoylamino)ethoxy]ethoxy}acetyl)-NH2] (Ac-[Orn]H[dF]RWDPPHE[Lys(CH2CO2H)2]K([AEEA-C16 diacid])-NH2; lactam 1-6) showed a solubility (pH 5.3, Solubility Conc.) of 204 µM (≈ 437 µg/mL), a solubility (pH 5.8, Solubility Conc.) of 280 µM (≈ 600 µg/mL) and a solubility (pH 6.1, Solubility Conc.) of 359 µM (≈ 770 µg/mL). It also gave a solubility (pH 6.4, Solubility Conc.) of 450 µM (≈ 965 µg/mL), a solubility (pH 6.7, Solubility Conc.) of 460 µM (≈ 986 µg/mL) and a solubility (pH 7, Solubility Conc.) of 442 µM (≈ 947 µg/mL). It also gave a solubility (pH 7.3, Solubility Conc.) of 468 µM (≈ 1000 µg/mL), a solubility (pH 7.6, Solubility Conc.) of 485 µM (≈ 1040 µg/mL) and a solubility (pH 7.8, Solubility Conc.) of 457 µM (≈ 980 µg/mL).
